Here are results for 13 molecules from US20070071794A1, “DRUGS FOR TREATING DIABETES” (priority 2004, published 2007).

Assay [1] deals with INS-1 cells derived from pancreatic β cells of rats. In words: Effect of improving insulin secretion defects in INS-1 cells cultured under high glucose. It counts as cell-based. Particulars: for Index of insulin secretion improvement: 25 mM glucose 28 h, then 11.1 mM glucose + amino acid at 10 times RPMI concentration 19 h, secretion in 16.7 mM glucose 2 h, 0 = defective cond., 1 = ordinary cond.; for improvement in insulin secretion defects (significance): secretion defective + amino acid condition, p<0.05. From the text: INS-1 cells derived from pancreatic β cells of rats were dispersed in each amount of 2×10^5 cells on a 24-well culture plate, then divided into three groups and cultured under the following conditions. That is:
First Group: Culture on RPMI medium (Non-patent Literature 4) under the ordinary condition.
Second Group: Culture under the secretion defective condition by culture under the high glucose concentration. That is, the glucose concentration was increased under the culture conditions of the first group.
Third Group: Under the culture condition of the second group, culture was conducted so that the end concentration of aspartic acid, cystine, serine, asparagine, isoleucine, histidine, hydroxyproline, glutamic acid or valine in the medium became 10 times as high as the concentration thereof in the RPMI medium.
First Group: ordinary condition
• cultured in 11.1 mM glucose for 28 hours, • cultured in 11.1 mM glucose for 19 hours Second Group: secretion defective condition • cultured in 25 mM glucose for 28 hours, • cultured in 11.1 mM glucose for 19 hours Third Group: secretion defective+amino acid condition • cultured in 25 mM glucose for 28 hours,
cultured in 11.1 mM glucose+amino acids for 19 hours
Those cultured cells were further cultured for 1 hour in KRBH buffer (Non-patent Literature 5), and cultured for 2 hours in KRBH buffer containing 16.7 mM glucose. Then, insulin secretion rate was determined. Under the secretion defective condition of the second group, the insulin secretion rate of […] lowered to about 60% of that under the ordinary condition. The effect of improving insulin secretion defects of amino acids was calculated by the following index. Index of insulin secretion improvement=((insulin secretion of the third group)−(insulin secretion of the second group))/((insulin secretion of the first group)−(insulin secretion of the second group))
(Reference: The index of insulin secretion improvement becomes 0 when the insulin secretion in administration of amino acids is same as that in the secretion defective condition, and it becomes 1 when the insulin secretion in administration of amino acids is same as that in the ordinary condition.)

The test system of a further assay is GK rats. In words: Glucose tolerance test in GK rats fed aspartic acid (blood glucose ΔAUC, insulinogenic index). The class given is in vivo. The following applies: for ΔAUC (blood glucose, glucose tolerance test): eighth week, oral 1 g/kg glucose after 5 hour fasting, CON group 230. How it is done: Male GK rats (7 weeks old) were fed in the following groups.
CON Group: 5 GK rats Controlled food was administered.
3AS Group: 5 GK rats Food with 3% aspartic acid was administered.
6AS Group: 5 GK rats Food with 6% aspartic acid was administered.
In the eighth week of administration, the glucose tolerance test (oral administration of 1 g/kg of glucose) was conducted to the rats after 5 hour fasting, and their blood glucose and insulin levels were determined over time.
Insulinogenic index was determined from the results of the glucose tolerance test after eight week administration in Example 2. Insulinogenic index is the value wherein the insulin rate secreted in 15 minutes after adding glucose was divided by the glucose level that increased in 15 minutes after adding glucose.

The test system of assay [2] is INS-1 cells derived from pancreatic β cells of rats. Briefly: Insulin secretion of INS-1 cells with aspartic acid combined with an insulin secretagogue. The class given is cell-based. Particulars: 5 mM glucose, 2 hours; for insulin secretion rate: n=3, Cond. 1 (no drug) 2.85±0.49; for insulin secretion increase (significance, in words): KRBH buffer, 0.3 μM nateglinide and/or 10 mM aspartic acid, compared to Condition 1 (combination also to Conditions 2, 3). The procedure:
INS-1 cells derived from pancreatic β cells of rats were dispersed in each amount of 2×10^5 cells on a 24-well culture plate, and cultured on RPMI medium for 48 hours. […] Condition 1: KRBH buffer, 5 mM glucose Condition 2: KRBH buffer, 5 mM glucose, 0.3 μM nateglinide Condition 3: […] Condition 4: […]

Take `NC(=O)C[C@H](N)C(=O)O` [Asn, asparagine]: in assay [1], the “Index of insulin secretion improvement” value was 0.87 and the “improvement in insulin secretion defects (significance)” value (“improvement … (significance)” below) is reported as “significantly improved”.
For the molecule `N[C@@H](CC(=O)O)C(=O)O` [Asp, L-aspartic acid], in assay [1], the “Index of insulin secretion improvement” value is reported as 1.75 and the “improvement … (significance)” value was “significantly improved”. Further, the “ΔAUC (blood glucose, glucose tolerance test)” value in the assay on GK rats (3AS group: food with 3% aspartic acid) was 190 mg·h/dL. Besides, the “ΔAUC (blood glucose, glucose tolerance test)” value in the assay with GK rats (6AS group: food with 6% aspartic acid) was 140 mg·h/dL. In addition, the “Insulinogenic index (result in words)” value in the assay with GK rats (food with 3% or 6% aspartic acid, eight weeks, insulin secreted / glucose increase in 15 minutes after glucose) is listed as “improved corresponding to the administered dose”. Further, in the assay with GK rats (food with 6% aspartic acid, after eight week administration), the “glucose tolerance (result in words)” value is listed as “improvement in the glucose tolerance was seen”. Besides, the insulin secretion rate in assay [2] (Condition 3: KRBH buffer, 10 mM aspartic acid) was found to be 3.69 ± 0.87 ng/mL. Also, the “insulin secretion increase (significance, in words)” value in assay [2] is recorded as “significant insulin secretion increase was not seen”.
With `N[C@@H](CSSC[C@H](N)C(=O)O)C(=O)O` [Cystine, cystine], in assay [1], the “Index of insulin secretion improvement” value was determined as 1.08 and the “improvement … (significance)” value is “significantly improved”.
Taken in the same sequence, the figures for `N[C@@H](CCC(=O)O)C(=O)O` [Glu, glutamic acid] were 0.57 and “significantly improved”.
In the case of `N[C@@H](Cc1c[nH]cn1)C(=O)O` [His, histidine], in assay [1], the “Index of insulin secretion improvement” value worked out at 0.67 and the “improvement … (significance)” value is recorded as “significantly improved”.
Taken in the same sequence, the figures for `O=C(O)[C@@H]1C[C@@H](O)CN1` [Hydroxyproline, hydroxyproline] were 0.64 and “significantly improved”.
Taken in the same sequence, the figures for `CC[C@H](C)[C@H](N)C(=O)O` [Ile, isoleucine] were 0.84 and “significantly improved”.
`N[C@@H](CO)C(=O)O` [Ser, serine]: in assay [1], the “Index of insulin secretion improvement” value was 0.97 and the “improvement … (significance)” value is reported as “significantly improved”.
For `CC(C)[C@H](N)C(=O)O` [Val, valine], in that order: 0.35 and “significantly improved”.
As to `N=C(N)NCCC[C@H](N)C(=O)O` [arginine, reference compound], the “improvement … (significance)” value in assay [1] is “significant improvement in insulin secretion defects was not confirmed”.
On to `CC(C)C[C@H](N)C(=O)O` [leucine, reference compound], for which the “improvement … (significance)” value in assay [1] is given as “significant improvement in insulin secretion defects was not confirmed”.
Still for that read-out and setting: under `NCCCC[C@H](N)C(=O)O` [lysine, reference compound] stands “significant improvement in insulin secretion defects was not confirmed”.
Take `CC(C)[C@H]1CC[C@H](C(=O)N[C@H](Cc2ccccc2)C(=O)O)CC1` [nateglinide, reference compound]: the insulin secretion rate in assay [2] (Condition 2: KRBH buffer, 0.3 μM nateglinide) turned out to be 4.34 ± 1.19 ng/mL. In addition, the “insulin secretion increase (significance, in words)” value in assay [2] is given as “significant insulin secretion increase was not seen”.
